Each structure is given as a SMILES string.

The data set can be described thus: gradient 5% acetonitrile 3 min, to 50% in 2 min, to 85% in 15 min, held 3 min, 100 µL/min. Particulars: column: Zorbax Extend-C18 2.1 x 50 mm; eluents: water / acetonitrile, 0.1% formic acid. A digest of the protocol: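 Retention time was recorded from adduct peaks, which were picked computationally and each inspected manually. Pure standards ran in mixtures of ~100 molecules on HPLC coupled to a quadrupole time-of-flight mass spectrometer, in positive and negative ionization mode, through a Zorbax Extend-C18 column (2.1 × 50 mm, 1.8 μm) at 100 μL/min. Eluents were water and acetonitrile, each with 0.1% formic acid.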
`CCOc1ccc(NC(=O)COc2cc(C)nc(N3CCN(c4ccccc4)CC3)n2)cc1` returned an RP-LC retention time of 839 s.

`CC(C)n1nc2c(S(=O)(=O)N3CCCCC3)cccn2c1=O` had an RP-LC retention time of 803 s. On to `Cc1cc(C)cc(C(=O)N2CCCC(C(=O)Nc3ccc(Br)c(C)c3)C2)c1` (stereo not given), for which the RP-LC retention time is 1110 s.

In the case of `CC(C)(C)c1csc(-c2csc(S(=O)(=O)NC3CCCCC3)c2)n1`, the RP-LC retention time worked out at 1320 s. In the case of `CCN1C(=O)CCc2cc(NS(=O)(=O)Cc3ccccc3Cl)ccc21` it was 803 s; in that of `Cc1ccc(CNC(=O)CCc2conc2-c2ccccc2)cc1`, 896 s; in that of `CC1CCN(Cc2nc(-c3ccc(N4CCSCC4)nc3)no2)CC1`, 672 s. In the case of `Cc1cc(C)cc(N2C(=O)C3N=NN(c4ccc(C)c(Cl)c4)C3C2=O)c1` (stereo not given) it was 1170 s. As to `Cc1ccc(C)c(NC(=O)C2CCN(S(C)(=O)=O)c3cc(C)ccc3O2)c1` (stereo not given), the RP-LC retention time came out at 998 s.

Turning to `CC(C)CCNC(=O)C1CCCN(c2ncc(-c3ccc(F)cc3)cn2)C1` (stereo not given), the RP-LC retention time is 1060 s. The result for `Clc1ccc(-c2nc(N3CCC(N4CCCCC4)CC3)c3ccccc3n2)cc1` reads 616 s. In turn, `CSc1cccc(NC(=O)c2cn3c(n2)CCCC3)c1` registered an RP-LC retention time of 630 s.

Turning to `O=C(Nc1ccccc1)C1CC(=O)N(CCc2c[nH]c3ccc(F)cc23)C1` (stereo not given), the RP-LC retention time is 796 s. As to `Cc1sc(NC(=O)c2cccc(Cl)c2)nc1-c1ccc2c(c1)NC(=O)CO2`, the RP-LC retention time stood at 968 s. The result for `C[C@H]1CC[C@]2(NC1)O[C@H]1C[C@H]3[C@@H]4CC[C@H]5C[C@@H](O)CC[C@]5(C)[C@H]4CC[C@]3(C)[C@H]1[C@@H]2C` reads 776 s. The compound `CC(C)CCN1CCC(N(C(=O)NCCc2ccccc2)C2CCOCC2)CC1` came in with an RP-LC retention time of 700 s.

For `Cn1c(C(=O)N2CCCC(C(=O)N3CCN(c4ccccc4)CC3)C2)cc2sccc21` (stereo not given), the RP-LC retention time was 892 s. Compound `CCN(CC)C(=O)N1CC(Oc2ccccc2-c2nc(-c3cnccn3)no2)C1` yielded an RP-LC retention time of 784 s. `CCCc1ccc(S(=O)(=O)N2CCCC2c2nc(-c3ccc(C)cc3)no2)cc1` (stereo not given) registered an RP-LC retention time of 1320 s. In the case of `CC(C)NC(=O)c1ccc(OCC2CCCN(C(=O)c3ccc(Cl)cc3)C2)cc1` (stereo not given) it was 881 s; in that of `NS(=O)(=O)c1ccc(Cl)c(-c2nnc(-c3ccccc3)o2)c1`, 788 s; in that of `Cc1ccccc1Cn1nc2ccc(S(=O)(=O)N3CCCCC3)cn2c1=O`, 813 s.

`CCC(C)NC(=O)c1cnn(-c2cc(-c3nc(C(C)C)no3)ccn2)c1C` (stereo not given): the RP-LC retention time was found to be 617 s.

Turning to `Cc1cc(C)nc(SCC(=O)Nc2nc(-c3ccccc3)cs2)n1`, the RP-LC retention time was 1020 s. In turn, `CSc1ccc(CNC(=O)Cn2cc(-c3nnc(C)o3)c3ccccc32)cc1` registered an RP-LC retention time of 812 s. In the case of `O=C(Nc1cccc2ccccc12)N1CCOCC1` it was 639 s.

On to `CCOc1ccc(C(C)C)cc1S(=O)(=O)Nc1cccnc1`, for which the RP-LC retention time was 722 s. In the case of `O=c1cc[nH]c2c(C(F)(F)F)cccc12` it was 609 s; in that of `COc1cccc(N2C(=O)N(Cc3cccc(F)c3)S(=O)(=O)c3cccnc32)c1`, 1010 s; in that of `CC1CCN(CCCNc2ccc(-c3nc(-c4ccc(F)cc4)no3)cn2)CC1`, 740 s.

The compound `Cc1c(-c2noc(C(=O)NCCN3CCCCCC3)n2)oc2ccccc12` came in with an RP-LC retention time of 710 s. Consider `Cc1ccc(-c2ccc(N3CCCC(C(=O)NCCC4=CCCCC4)C3)nn2)cc1C` (stereo not given), for which the RP-LC retention time was 888 s. In turn, `Cc1cccc(CNC(=O)c2csc(C(=O)NC3CC3)n2)c1` came in with an RP-LC retention time of 824 s. In the case of `CCCCNC(=O)c1ccc2c(c1)CCCN2S(C)(=O)=O` it was 774 s. In the case of `O=C(Nc1ccc(Cl)cc1F)c1cccn1Cc1noc(C2CC2)n1` it was 1020 s; in that of `O=C(NCCc1ccccc1)C1CCN(C(=O)c2ncn3c2COC(c2ccc(Cl)cc2)C3)CC1` (stereo not given), 815 s; in that of `CCCn1cc(C2=CCN(S(=O)(=O)c3ccc(F)c(Cl)c3)CC2)c2cccnc21`, 1190 s.

With `O=C(CSc1nnc(-c2ccc3c(c2)OCCCO3)n1C1CC1)N1CCCC1`, the RP-LC retention time came to 710 s. The result for `O=C(Nc1ccc2nncn2c1)c1cccc(Cl)c1` reads 719 s; that for `CN1CCCc2cc(C(CNC(=O)C(=O)NCCN3CCOCC3)N3CCCCC3)ccc21` (stereo not given), 558 s; that for `O=S(=O)(Nc1ccc(Cn2cncn2)cc1)c1ccccc1Br`, 708 s. Take `Cc1[nH]c(C(=O)Nc2ccccc2F)c(C)c1S(=O)(=O)N1CCCCC1`: the RP-LC retention time was 933 s. The result for `CCc1nc(-c2c(C)cc(C)nc2NC(=O)c2ccc(C)c(F)c2)no1` reads 883 s. In turn, `CNC(=O)c1cc(-c2cccc(F)c2)nc2ccccc12` registered an RP-LC retention time of 850 s.

In turn, `O=C(CN1C(=O)CCC1=O)Nc1nnc(-c2ccc(C(F)(F)F)cc2)o1` returned an RP-LC retention time of 674 s. The result for `Cc1ccccc1Oc1nccnc1N1CCC(C(=O)NC2CCCCCC2)CC1` reads 1090 s; that for `O=C(Nc1ccccc1)N1CCN(c2nc3ccccc3nc2C(F)(F)F)CC1`, 1070 s.

Compound `CCC(=O)N(C1CCOCC1)C1CCN(Cc2ccc(C)cc2C)CC1` registered an RP-LC retention time of 636 s. In the case of `O=c1[nH][nH]c2nnc(-c3c(-c4ccccc4)nn4ccccc34)cc12` it was 679 s. As to `O=C(NC1CCCCC1)N1CCC(c2noc(COCC3CC3)n2)CC1`, the RP-LC retention time was 830 s. `CC(C)n1cnc(S(=O)(=O)N2CCC(C(=O)Nc3cccc(Br)c3)CC2)c1` came in with an RP-LC retention time of 843 s. `CCOc1ccccc1-c1noc(Cn2c(=O)n(-c3ccccc3F)c(=O)c3sccc32)n1` had an RP-LC retention time of 982 s.

As for `CCCN1CCN(C(=O)CN2C(=O)C3CCCCN3c3ccc(C(=O)N(C)C)cc32)CC1` (stereo not given), the RP-LC retention time stood at 602 s. In turn, `CCOc1ccc(-n2nnc(-c3nc(-c4ccccc4OC)cs3)c2N)cc1` yielded an RP-LC retention time of 1170 s. Compound `O=C(CN1C(=O)CCCc2cc(S(=O)(=O)N3CCCC3)ccc21)Nc1ccc(Cl)cc1` registered an RP-LC retention time of 892 s. Regarding `Cc1ccc(NC(=O)N2CCN(c3cnn4c(C5CC5)nnc4c3)CC2)cc1`, the RP-LC retention time was 653 s. `COc1ccc(-c2nc3cnc(Br)cn3c2Nc2ccc(OC)c(OC)c2)cc1` yielded an RP-LC retention time of 852 s. The result for `CCOC(=O)C(CC)n1cnc2c(cnn2-c2ccccc2)c1=O` (stereo not given) reads 857 s. The compound `CCCN1C(=O)c2cc(S(=O)(=O)NCC(C)C)ccc2Oc2cccnc21` had an RP-LC retention time of 1050 s.

In turn, `CCN1CCN(CCCNC(=O)C2CCCN(C(=O)c3cc4sccc4n3CC)C2)CC1` (stereo not given) gave an RP-LC retention time of 566 s. For `COc1ccc(Cn2nnc(C(=O)O)c2C)cc1F`, the RP-LC retention time is 645 s. Consider `Cn1c(=O)n(C)c2cc(CNCCc3ccc(S(N)(=O)=O)cc3)ccc21`, for which the RP-LC retention time was 538 s. Regarding `O=C(NCCn1nc(-n2cccn2)ccc1=O)c1ccc2nsnc2c1`, the RP-LC retention time was 621 s.

`CC1CCN(CCCNC(=O)c2nc(CCS(=O)(=O)c3ccc(F)cc3)no2)CC1` registered an RP-LC retention time of 634 s. The result for `COc1ccc(-c2nc(-c3cn(Cc4cccc(F)c4)nn3)no2)c(OC)c1` reads 934 s; that for `COc1ccc(S(=O)(=O)N2CCN(c3cnn4c(C)nnc4c3)CC2)cc1`, 670 s. In turn, `O=c1c2sccc2n(Cc2nc(-c3ccc(C(F)(F)F)cc3)no2)c(=O)n1-c1cccc(F)c1` showed an RP-LC retention time of 1090 s. `O=C(Nc1nnc(C2CC(=O)N(c3ccccc3)C2)o1)c1cccc(Cl)c1` (stereo not given) registered an RP-LC retention time of 767 s. In turn, `CC(NC(=O)C(C)n1c2ccccc2c2cnn(C)c(=O)c21)C(=O)N1CCCCC1` (stereo not given) registered an RP-LC retention time of 764 s.

With `CCC(C)NC(=O)c1ccc2c(c1)N(C)C(=O)CS2` (stereo not given), the RP-LC retention time was found to be 734 s. In the case of `CCS(=O)(=O)N1CC(=O)N(c2ccc(C)cc2C)C(C)(C(=O)NC2CCCCCC2)C1` (stereo not given) it was 1000 s; in that of `COc1ccc(S(=O)(=O)N2CCC(n3cnnc3-c3ccccc3)CC2)cc1OC`, 718 s; in that of `CC(=O)Nc1ccc(-c2nc(-c3ccc4c(c3)oc(=O)n4C(C)C)no2)cc1`, 943 s.

For the compound `O=C(NCc1ccco1)c1csc(N2CCN(c3cccc(Cl)c3)CC2)n1`, the RP-LC retention time came out at 1080 s.

Consider `Cc1nc(-c2nc(-c3cccs3)cs2)cn1CC(=O)N1CCN(c2ccccc2)CC1`, for which the RP-LC retention time turned out to be 813 s. The result for `CCc1nc(-c2ccnc(N3CCOCC3)c2)no1` reads 678 s.

As to `COc1ccc(N2CC(NC(=O)NN3CCOCC3)CC2=O)cc1` (stereo not given), the RP-LC retention time was found to be 587 s. In the case of `CN1C(=O)c2cccn2CC1CNS(=O)(=O)Cc1ccccc1F` (stereo not given) it was 670 s; in that of `Cc1nc(OCC(=O)Nc2ccccc2Br)c2ccccc2n1`, 745 s; in that of `Cc1[nH]c(C(=O)N2CCCC(C(=O)N3CCN(c4ccccc4)CC3)C2)c(C)c1C(=O)OC(C)C` (stereo not given), 892 s.

The values are drawn from the METLIN SMRT retention time set (Domingo-Almenara et al. 2019).
